Assay results published in ChEMBL document CHEMBL4330071 (Eur J Med Chem, 2019).

Tests used:
[1] = molecular target: T1, Receptor-type tyrosine-protein kinase FLT3 (Homo sapiens, UniProt P36888); assay: Inhibition of human FLT3 using EAIYAAPFAKKK as substrate preincubated for 20 mins followed by [gamma-33P]-ATP addition and measured after 120 mins by Hotspot assay
T1 sequence (P36888 whole entry): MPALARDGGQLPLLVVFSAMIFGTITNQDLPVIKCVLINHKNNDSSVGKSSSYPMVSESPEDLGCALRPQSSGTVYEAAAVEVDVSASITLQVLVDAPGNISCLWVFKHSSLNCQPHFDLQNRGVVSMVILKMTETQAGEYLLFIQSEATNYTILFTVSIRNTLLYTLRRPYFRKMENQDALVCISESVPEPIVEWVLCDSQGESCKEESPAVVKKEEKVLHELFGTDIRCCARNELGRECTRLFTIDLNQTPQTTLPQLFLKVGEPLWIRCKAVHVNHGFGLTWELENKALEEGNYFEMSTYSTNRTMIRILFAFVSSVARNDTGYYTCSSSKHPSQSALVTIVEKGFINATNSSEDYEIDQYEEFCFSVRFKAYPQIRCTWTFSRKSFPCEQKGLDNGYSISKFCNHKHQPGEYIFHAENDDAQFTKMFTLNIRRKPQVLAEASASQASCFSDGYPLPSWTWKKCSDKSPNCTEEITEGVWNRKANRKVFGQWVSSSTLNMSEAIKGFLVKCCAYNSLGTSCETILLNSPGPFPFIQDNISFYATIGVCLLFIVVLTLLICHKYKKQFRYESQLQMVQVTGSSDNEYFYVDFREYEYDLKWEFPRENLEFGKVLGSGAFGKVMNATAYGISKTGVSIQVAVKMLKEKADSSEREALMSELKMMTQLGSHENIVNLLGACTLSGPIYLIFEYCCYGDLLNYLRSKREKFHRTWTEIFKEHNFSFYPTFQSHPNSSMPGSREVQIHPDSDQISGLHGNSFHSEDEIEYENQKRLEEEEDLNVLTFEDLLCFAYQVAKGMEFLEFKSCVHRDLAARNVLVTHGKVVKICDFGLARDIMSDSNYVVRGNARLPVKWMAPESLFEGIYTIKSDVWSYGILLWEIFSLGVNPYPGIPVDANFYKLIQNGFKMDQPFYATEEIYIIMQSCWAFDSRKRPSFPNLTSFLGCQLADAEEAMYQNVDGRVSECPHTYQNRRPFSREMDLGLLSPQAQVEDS

[2] = Half life in human liver microsomes at 1 uM after 5 to 60 mins in presence of NADPH by LC-MS/MS analysis; format: ADME, Microsome
[3] = Intrinsic clearance in human liver microsomes assessed per mg protein at 1 uM after 5 to 60 mins in presence of NADPH by LC-MS/MS analysis; format: ADME, Microsome; details: read-out: CLH
[4] = Half life in rat liver microsomes at 1 uM after 5 to 60 mins in presence of NADPH by LC-MS/MS analysis; format: ADME, Microsome
[5] = Intrinsic clearance in rat liver microsomes assessed per mg protein at 1 uM after 5 to 60 mins in presence of NADPH by LC-MS/MS analysis; format: ADME, Microsome; details: read-out: CLH
MV4-11 [6] = assay: Induction of apoptosis in human MV4-11 cells assessed as early apoptotic cells at 1 uM after 24 hrs by Annexin V-FITC/propidium iodide staining based flow cytometric analysis (reference value: 3.39%); format: functional
MV4-11 [7] = assay: Induction of apoptosis in human MV4-11 cells assessed as late apoptotic cells at 1 uM after 24 hrs by Annexin V-FITC/propidium iodide staining based flow cytometric analysis (reference value: 1.42%); format: functional
MV4-11 [8] = assay: Induction of apoptosis in human MV4-11 cells assessed as necrotic cells at 1 uM after 24 hrs by Annexin V-FITC/propidium iodide staining based flow cytometric analysis (reference value: 0%); format: functional
MV4-11 [9] = assay: Induction of apoptosis in human MV4-11 cells assessed as viable cells at 1 uM after 24 hrs by Annexin V-FITC/propidium iodide staining based flow cytometric analysis (reference value: 95.19%); format: functional; details: MV4-11, 24 h, read-out: Activity
MV4-11 [10] = assay: Cytotoxicity against human MV4-11 cells at 1 uM after 72 hrs by MTT assay; format: cell-based; details: mv4-11, 72 h

Compound: CN1CCN(c2ccc(Nc3[nH]nc4c3-c3ccccc3CO4)cc2)CC1
- IC50 [1]: 0.842 µM

Compound: CN1CCN(c2ccc(Nc3[nH]nc4c3-c3ccccc3CC4)cc2)CC1
- IC50 [1]: 0.61 µM

Compound: Cc1ncc2n1-c1ccc(Cl)cc1C(c1ccccc1F)=NC2 [MIDAZOLAM]
- half-life at 1 µM [2]: 2.2 min
- microsomal CLint at 1 µM [3]: 625 µL/min/mg
- half-life at 1 µM [4]: 11.2 min
- microsomal CLint at 1 µM [5]: 124 µL/min/mg

Compound: COc1ccc(Oc2ccc3c(NC(=O)c4ccc(NC5CCN(C)CC5)cc4)n[nH]c3c2)cc1
- IC50 [1]: 0.222 µM

Compound: CN1CCC(Nc2ccc(C(=O)Nc3n[nH]c4cc(Oc5ccccc5)ccc34)cc2)CC1
- IC50 [1]: 0.136 µM

Compound: CNC(=O)c1cc(Oc2ccc(NC(=O)Nc3ccc(Cl)c(C(F)(F)F)c3)cc2)ccn1 [SORAFENIB]
- Activity (MV4-11 [6]): 32.25%
- Activity (MV4-11 [7]): 27.58%
- Activity (MV4-11 [8]): 4.2%
- viability at 1 µM (MV4-11 [9]): 36%
- Activity (MV4-11 [10]): Non-Toxic
